Our source for the GI50 and TGI values is PubChem BioAssay (NCI).

Structures are written as SMILES. “And” between values parts separate entries of the source, which are not always exact repeats. Equal values may be shown once.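 Dose response: 5 concentrations. Exposure: 48 h. Format: 96-well plates. Endpoint: linear interpolation; highest concentration if not reached. At the GI50, growth is halved. TGI: total growth inhibition.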

Some test systems named below: DU-145 prostate; IGROV1 ovarian; KM20L2 colon; LXFL 529 NSCLC; MOLT-4 leukemia; PC-3 prostate; SK-MEL-28 melanoma; SK-OV-3 ovarian; SNB-19 CNS; SNB-78 CNS.
Common to all, as to assay: inhibition of tumour cell growth, NCI panel, 48 h

Turning to `CCN(CC)CC.CCOc1ccc(NC(=O)N=C=[N-])cc1.[CH-]1CCCCC1.[CH-]1CCCCC1.[CH-]1CCCCC1.[Cl-].[Sn+4]`, the GI50 was 0.0617 µM in the assay on DU-145 prostate; 0.0342 µM in the assay with IGROV1 ovarian; 0.0229 µM in the assay on KM20L2 colon; 0.0193 µM with LXFL 529 NSCLC; 0.0281 µM with MOLT-4 leukemia; 0.0596 µM in the assay with PC-3 prostate. Besides, the GI50 was 0.0349 µM in the assay with SK-MEL-28 melanoma, 0.0466 µM with SK-OV-3 ovarian, 0.0586 µM in the assay with SNB-19 CNS and 0.0472 µM in the assay with SNB-78 CNS. Moreover, the TGI was found to be 0.19 µM in the assay with DU-145 prostate; 0.115 µM with IGROV1 ovarian; 0.0505 µM in the assay on KM20L2 colon; 0.0488 µM in the assay with LXFL 529 NSCLC; 0.233 µM in the assay on MOLT-4 leukemia; 0.21 µM in the assay with PC-3 prostate. The TGI in the assay on SK-MEL-28 melanoma came out at 0.088 µM; in the assay with SK-OV-3 ovarian it was 0.118 µM; with SNB-19 CNS, 0.122 µM; with SNB-78 CNS, 0.373 µM.

`CCOC(=O)C[C@@H](C)[C@]1(C(=O)OC)CCCC1=O`: the TGI in the assay with IGROV1 ovarian, in the assay with KM20L2 colon, in the assay with LXFL 529 NSCLC, with MOLT-4 leukemia, in the assay on SK-MEL-28 melanoma and in the assay with SK-OV-3 ovarian was more than 100 µM throughout. Also, the TGI in the assay with SNB-19 CNS and in the assay with SNB-78 CNS was more than 100 µM each time.

`C[C@H](N)C(=O)N[C@@H]1[C@H]2C(=C(O)C[C@@H](O)[C@@H]2O)C(=O)O[C@]1(C)C(Cl)Cl`: the GI50 with DU-145 prostate was 0.372 µM; with IGROV1 ovarian, 0.441 µM; with MOLT-4 leukemia, 0.186 µM and 0.13 µM; in the assay with SK-OV-3 ovarian it was 0.2 µM; with SNB-19 CNS it was 0.242 µM. Also, the TGI with IGROV1 ovarian was 7.79 µM and 2.43 µM; with KM20L2 colon it was 2.73 µM and 3.23 µM; in the assay with LXFL 529 NSCLC it was 1.53 µM; in the assay on MOLT-4 leukemia, 3.79 µM and 0.564 µM; in the assay with PC-3 prostate, 3.89 µM and 1.37 µM; in the assay on SK-MEL-28 melanoma, 2.75 µM and 1.65 µM. Besides, the TGI in the assay on SK-OV-3 ovarian is 2.25 µM and 1.95 µM; in the assay on SNB-19 CNS it was 6.02 µM and 1.72 µM; with SNB-78 CNS, 2.1 µM.

On to `CCOC(=O)Cc1nc2ccccc2s1`, for which the TGI with IGROV1 ovarian is more than 100 µM; in the assay on KM20L2 colon, 69.1 µM; with LXFL 529 NSCLC, 29.4 µM; in the assay with MOLT-4 leukemia it was 65.9 µM; in the assay with SK-MEL-28 melanoma, 28.2 µM; in the assay on SK-OV-3 ovarian, more than 100 µM. Further, the TGI in the assay with SNB-19 CNS was more than 100 µM; in the assay on SNB-78 CNS, 33 µM.

On to `COc1cccc(NC(=O)C(C)(C)C)c1C=O`, for which the TGI with IGROV1 ovarian, with KM20L2 colon, in the assay on LXFL 529 NSCLC, in the assay with MOLT-4 leukemia, in the assay on SK-MEL-28 melanoma and in the assay with SK-OV-3 ovarian was more than 100 µM each time. Moreover, the TGI in the assay on SNB-19 CNS and in the assay with SNB-78 CNS was more than 100 µM in each case.

For `CN(C)c1ncnc2c1Cc1ccccc1C(=O)N2C`, the TGI in the assay with IGROV1 ovarian, with KM20L2 colon, in the assay on LXFL 529 NSCLC, in the assay on MOLT-4 leukemia, in the assay on SK-MEL-28 melanoma and in the assay on SK-OV-3 ovarian was more than 100 µM throughout. In addition, the TGI with SNB-19 CNS and in the assay with SNB-78 CNS was more than 100 µM in each case.

For the compound `O=C1Nc2cc(Cl)ccc2N=CC1NC(=O)C(c1ccccc1)c1ccccc1Cl` (stereo not drawn), the TGI with IGROV1 ovarian, in the assay with KM20L2 colon, in the assay with LXFL 529 NSCLC, in the assay with MOLT-4 leukemia, in the assay on SK-MEL-28 melanoma and in the assay with SK-OV-3 ovarian was more than 100 µM each time. Besides, the TGI in the assay on SNB-19 CNS and with SNB-78 CNS was more than 100 µM each time.

In the case of `CC1=C(C(=O)Nc2ccccc2C)C(c2ccc(C3C(C(=O)Nc4ccccc4C)=C(C)NC(C)=C3C(=O)Nc3ccccc3C)cc2)C(C(=O)Nc2ccccc2C)=C(C)N1`, the TGI with DU-145 prostate turned out to be 32.1 µM; in the assay with IGROV1 ovarian, 9.5 µM; in the assay with KM20L2 colon it was 12.9 µM; in the assay on LXFL 529 NSCLC it was 10.5 µM; in the assay on MOLT-4 leukemia, 9.28 µM; with PC-3 prostate, 16.1 µM. In addition, the TGI in the assay on SK-MEL-28 melanoma was determined as 4.26 µM; in the assay on SK-OV-3 ovarian it was 28.8 µM; in the assay with SNB-19 CNS, 29.4 µM; in the assay with SNB-78 CNS it was 16.7 µM.

With `CCOc1cc2ccc3c4cc(OC)c(OC)cc4cnc3c2cc1OCC`, the TGI in the assay with IGROV1 ovarian, with KM20L2 colon, with LXFL 529 NSCLC, in the assay with MOLT-4 leukemia, with SK-MEL-28 melanoma and in the assay with SK-OV-3 ovarian was more than 100 µM throughout. The TGI in the assay with SNB-19 CNS and in the assay on SNB-78 CNS was more than 100 µM throughout.

As to `O=C(O)C1=C(C(=O)Nc2ccccc2)C2C=CC1C2` (stereo not drawn), the TGI in the assay with IGROV1 ovarian, in the assay with KM20L2 colon, in the assay on LXFL 529 NSCLC, in the assay with MOLT-4 leukemia, with SK-MEL-28 melanoma and with SK-OV-3 ovarian was more than 100 µM each time. In addition, the TGI with SNB-19 CNS and with SNB-78 CNS was more than 100 µM throughout.

As for `COc1ccc2c(c1O)C(=O)C(CCC(=O)O)CC2` (stereo not drawn), the TGI with IGROV1 ovarian, with KM20L2 colon, in the assay with LXFL 529 NSCLC, in the assay on MOLT-4 leukemia, in the assay on SK-MEL-28 melanoma and with SK-OV-3 ovarian was more than 100 µM throughout. Moreover, the TGI in the assay with SNB-19 CNS and in the assay with SNB-78 CNS was more than 100 µM throughout.
